Reference: US6716833B2, “Acetylenic α-amino acid-based sulfonamide hydroxamic acid tace inhibitors” (priority 1999, dated 2004)
Where a name gives a salt, the structure may show the parent alone. Read-outs that look alike come from different tables or passages of the source.

Legend:
Type in all cases: biochemical
MMP-13 = MMP-13 (Homo sapiens, UniProt P45452); experiment: MMP-13 inhibition (thiopeptide or fluorescent peptide substrate)
[1] = target: TNF-α converting enzyme (TACE) (Homo sapiens, UniProt P78536); experiment: TACE inhibition (fluorescent peptidyl substrate); details: read-out: TACE IC50
Sequence of TNF-α converting enzyme (TACE) (P78536 215-824, species assumed): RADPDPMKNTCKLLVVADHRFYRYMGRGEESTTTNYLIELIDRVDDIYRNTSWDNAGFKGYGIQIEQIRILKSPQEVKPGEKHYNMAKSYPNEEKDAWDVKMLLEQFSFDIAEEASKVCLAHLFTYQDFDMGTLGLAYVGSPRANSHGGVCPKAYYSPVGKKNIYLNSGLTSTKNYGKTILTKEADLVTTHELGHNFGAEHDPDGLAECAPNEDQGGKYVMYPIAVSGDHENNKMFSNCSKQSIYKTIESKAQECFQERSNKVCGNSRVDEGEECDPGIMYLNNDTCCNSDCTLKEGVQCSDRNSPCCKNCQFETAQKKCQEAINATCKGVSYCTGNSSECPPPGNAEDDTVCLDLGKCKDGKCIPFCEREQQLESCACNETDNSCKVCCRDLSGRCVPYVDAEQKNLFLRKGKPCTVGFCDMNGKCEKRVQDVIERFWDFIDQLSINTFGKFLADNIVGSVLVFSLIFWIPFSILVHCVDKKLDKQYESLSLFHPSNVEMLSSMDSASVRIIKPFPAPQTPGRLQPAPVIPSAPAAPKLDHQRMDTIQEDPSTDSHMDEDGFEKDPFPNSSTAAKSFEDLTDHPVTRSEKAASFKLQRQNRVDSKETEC

MMP-1 = target: T1, MMP-1 (Homo sapiens, UniProt P03956); experiment: MMP-1 inhibition (thiopeptide or fluorescent peptide substrate); details: read-out: MMP-1 IC50
T1 sequence (P03956 100-469): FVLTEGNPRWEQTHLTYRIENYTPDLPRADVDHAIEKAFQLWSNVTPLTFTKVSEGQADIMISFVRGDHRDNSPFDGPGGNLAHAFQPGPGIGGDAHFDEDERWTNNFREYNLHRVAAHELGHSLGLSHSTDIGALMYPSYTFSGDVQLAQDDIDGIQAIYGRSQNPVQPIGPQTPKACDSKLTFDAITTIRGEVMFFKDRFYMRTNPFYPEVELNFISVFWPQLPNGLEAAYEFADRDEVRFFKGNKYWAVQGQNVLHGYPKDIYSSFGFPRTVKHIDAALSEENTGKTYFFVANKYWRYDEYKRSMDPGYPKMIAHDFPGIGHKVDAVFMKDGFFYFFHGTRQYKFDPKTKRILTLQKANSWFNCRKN

MMP-9 = MMP-9 (Homo sapiens, UniProt P14780); experiment: MMP-9 inhibition (thiopeptide or fluorescent peptide substrate); details: read-out: MMP-9 IC50
Sequence of MMP-9 (P14780 94-707): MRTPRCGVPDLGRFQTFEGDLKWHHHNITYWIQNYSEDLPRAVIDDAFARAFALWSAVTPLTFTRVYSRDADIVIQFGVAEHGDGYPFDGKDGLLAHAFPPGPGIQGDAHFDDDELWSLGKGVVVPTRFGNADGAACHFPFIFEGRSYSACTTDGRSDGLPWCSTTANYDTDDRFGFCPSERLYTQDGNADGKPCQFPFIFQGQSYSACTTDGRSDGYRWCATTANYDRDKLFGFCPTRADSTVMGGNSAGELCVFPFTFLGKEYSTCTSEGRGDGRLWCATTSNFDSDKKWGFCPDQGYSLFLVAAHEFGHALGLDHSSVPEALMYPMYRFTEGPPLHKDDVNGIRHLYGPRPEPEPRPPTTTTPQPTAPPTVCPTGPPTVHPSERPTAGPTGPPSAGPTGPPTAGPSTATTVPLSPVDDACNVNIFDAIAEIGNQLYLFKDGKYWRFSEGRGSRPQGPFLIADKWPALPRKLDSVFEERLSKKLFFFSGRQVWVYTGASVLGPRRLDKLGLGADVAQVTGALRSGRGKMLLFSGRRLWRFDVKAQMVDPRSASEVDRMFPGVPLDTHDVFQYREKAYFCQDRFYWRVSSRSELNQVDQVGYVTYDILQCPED

[2] = Table 10, read-out: MMP-13 IC50
[3] = Table 11, read-out: MMP-13 IC50

IC50 (MMP-13; read-out: MMP-13 IC50) [nM]	IC50 [1] [nM]	IC50 (MMP-1) [nM]	IC50 (MMP-9) [nM]	SMILES	further results
89	102	244	628	CC#CCOc1ccc(S(=O)(=O)N(CCN2CCOCC2)C(C(=O)NO)C(C)C)cc1 (stereo not drawn) [Example 123, 2-[[[4-(2-Butynyloxy)phenyl]sulfonyl][2-(4-morpholinyl)ethyl]amino]-N-hydroxy-3-methylbutanamide]	–
27	309	839	53	CC#CCOc1ccc(S(=O)(=O)N(C)C(C(=O)NO)c2ccc(OCCN3CCN(C(=O)OC(C)(C)C)CC3)cc2)cc1 (stereo not drawn) [Example 185, tert-Butyl 4-(2-{4-[1-[{[4-(2-Butynyloxy)phenyl]sulfonyl}(methyl)amino]-2-(hydroxyamino)-2-oxoethyl]phenoxy}ethyl)-1-piperazinecarboxylate]	–
11	35	434	55	CC#CCOc1ccc(S(=O)(=O)N(C)C(C(=O)NO)c2ccc(OCCN3CCCC3=O)cc2)cc1 (stereo not drawn) [Example 184, 2-[{[4-(2-Butynyloxy)phenyl]sulfonyl}(methyl)amino]-N-hydroxy-2-{4-[2-(2-oxo-1-pyrrolidinyl)ethoxy]phenyl}acetamide]	–
–	–	–	–	CC(C)(C)OC(=O)NCCC#CCOc1ccc(S(=O)(=O)N2CCSC(C)(C)C2C(=O)NO)cc1 (stereo not drawn) [Example 245, tert-Butyl 5-[4-({3-[(Hydroxyamino)carbonyl]-2,2-dimethyl-4-thiomorpholinyl}sulfonyl)phenoxy]-3-pentynylcarbamate]	IC50 (MMP-13; [2]): 6.6 nM; IC50 ([1]; Table 10): 112 nM; IC50 (MMP-1; Table 10): 300 nM; IC50 (MMP-9; Table 10): 2380 nM
53	55	210	233	C#CCN(C(C(=O)NO)C(C)C)S(=O)(=O)c1ccc(OCC#CC)cc1 (stereo not drawn) [Example 109, 2-[{[4-(2-Butynyloxy)phenyl]sulfonyl}(2-propynyl)amino]-N-hydroxy-3-methylbutanamide]	–
428	29	~10000	402	CC#CCOc1ccc(S(=O)(=O)N(C)CC(=O)NO)cn1 [Example 131, 2-[(6-but-2-ynyloxy-Pyridine-3-sulfonyl)-methyl-amino]-N-hydroxy-acetamide]	–
–	–	–	–	CC#CCOc1ccc(S(=O)(=O)N2C[C@@H](CN)SC(C)(C)[C@@H]2C(=O)NO)cc1 [Example 275, (3S,6R)-trans-6-(Aminomethyl)-4-{[4-(2-butynyloxy)phenyl]sulfonyl}-N-hydroxy-2,2-dimethyl-3-thiomorpholinecarboxamide Hydrochloride]	IC50 (MMP-13; [3]): 16 nM; IC50 ([1]; Table 11): 128 nM; IC50 (MMP-1; Table 11): 30 nM; IC50 (MMP-9; Table 11): 22 nM
–	–	–	–	CC1(C)SCCN(S(=O)(=O)c2ccc(OCC#CCCCO)cc2)C1C(=O)NO (stereo not drawn) [Example 249, N-Hydroxy-4-({4-[(6-hydroxy-2-hexynyl)oxy]phenyl}sulfonyl)-2,2-dimethyl-3-thiomorpholine Carboxamide]	IC50 (MMP-13; [2]): 86 nM; IC50 ([1]; Table 10): 40 nM; IC50 (MMP-1; Table 10): 159 nM; IC50 (MMP-9; Table 10): 377 nM
–	83	287	25	CC#CCOc1ccc(S(=O)(=O)N2CCN(Cc3ccccc3)CCC2C(=O)NO)cc1 (stereo not drawn) [Example 290, 1-Benzyl-4-{[4-(2-butynyloxy)phenyl]sulfonyl}-N-hydroxy-1,4-diazepane-5-carboxamide]	–
119	12	–	251	CC#CCOc1ccc(S(=O)(=O)N2CCN(C(=O)c3cccs3)CC2C(=O)NO)cc1 (stereo not drawn) [Example 226, 1-(4-but-2-ynyloxy-Benzenesulfonyl)-4-(thiophene-2-carbonyl)-piperazine-2-carboxylic Acid Hydroxyamide]	–
7.6	23	–	14	CC#CCOc1ccc(S(=O)(=O)N2CCNCC2C(=O)NO)cc1 (stereo not drawn) [Example 214, 1-(4-but-2-ynyloxy-Benzenesulfonyl)-piperazine-2-carboxylic Acidhydroxyamide]	–
–	–	–	–	CC1(C)SCCN(S(=O)(=O)c2ccc(OCC#CCN)cc2)C1C(=O)NO (stereo not drawn) [Example 265, 4-({4-[(4-Amino-2-butynyl)oxy]phenyl}sulfonyl)-N-hydroxy-2,2-dimethyl-3-thiomorpholine Carboxamide]	IC50 (MMP-13; [2]): 7.5 nM; IC50 (MMP-1; Table 10): 97 nM; IC50 (MMP-9; Table 10): 8.7 nM
9.2	9	–	71	CC#CCOc1ccc(S(=O)(=O)N2CCN(C(=O)OC)CC2C(=O)NO)cc1 (stereo not drawn) [Example 228, 4-(4-but-2-ynyloxy-Benzenesulfonyl)-3-hydroxycarbamoyl-piperazine-1-carboxylic Acid Methyl Ester]	–
–	–	–	–	CC(C)(C)OC(=O)NCCCCC#CCOc1ccc(S(=O)(=O)N2CCSC(C)(C)[C@@H]2C(=O)NO)cc1 [Example 252, tert-Butyl 7-[4-({(3S)-3-[(Hydroxyamino)carbonyl]-2,2-dimethylthiomorpholinyl}sulfonyl)phenoxy]-5-heptynylcarbamate]	IC50 (MMP-13; [2]): 4.3 nM; IC50 ([1]; Table 10): 199 nM; IC50 (MMP-1; Table 10): 87 nM
–	74	–	3.7	CC#CCOc1ccc(S(=O)(=O)N(C)C(C(=O)NO)C(C)(C)SCc2cccnc2)cc1 (stereo not drawn) [Example 152, 2-[(4-but-2-ynyloxy-Benenesulfonyl)-methyl-amino]-N-hydroxy-3-methyl-3-(pyridin-3-ylmethylsulfanyl)-butyramide]	IC50 (MMP-13; MMP-13 IC50): 1.7 nM
–	–	–	–	CC#CCOc1ccc(S(=O)(=O)N2C[C@H](CC(=O)OC(C)(C)C)SC(C)(C)[C@@H]2C(=O)NO)cc1 [Example 277, tert-Butyl{(2S,5S)-4-{[4-(2-butynyloxy)phenyl]sulfonyl}-5-[(hydroxyamino)carbonyl]-6,6-dimethylthiomorpholinyl}acetate]	IC50 (MMP-13; [3]): 7.6 nM; IC50 ([1]; Table 11): 234 nM; IC50 (MMP-1; Table 11): 7.8 nM
97	28	–	221	CC#CCOc1ccc(S(=O)(=O)N2CCN(C(=O)N(CC)CC)CC2C(=O)NO)cc1 (stereo not drawn) [Example 216, 4-(4-but-2-ynyloxy-Benzenesulfonyl)-piperazine-1,3-dicarboxylic Acid 1-Diethylamide 3-Hydroxyamide]	–
16	111	20	–	CC#CCOc1ccc(S(=O)(=O)N2CCCSC(C)(C)[C@@H]2C(=O)NO)cc1 [Example 173]	–
–	–	–	–	CC#CCOc1ccc(S(=O)(=O)N2C[C@H](CC(=O)N(C)C)SC(C)(C)[C@@H]2C(=O)NO)cc1 [Example 281, (3S,6S)-4-{[4-(2-Butynyloxy)phenyl]sulfonyl}-6-[2-(dimethylamino)-2-oxoethyl]-N-hydroxy-2,2-dimethyl-3-thiomorpholinecarboxamide]	IC50 (MMP-13; [3]): 23 nM; IC50 ([1]; Table 11): 130 nM; IC50 (MMP-1; Table 11): 50 nM
–	–	–	–	CC1(C)SCCN(S(=O)(=O)c2ccc(OCC#CC#CCO)cc2)[C@H]1C(=O)NO [Example 262, (3S)-N-Hydroxy-4-({4-[(6-hydroxy-2,4-hexadiynyl)oxy]phenyl}sulfonyl)-2,2-dimethyl-3-thiomorpholine Carboxamide]	IC50 (MMP-13; [2]): 14 nM; IC50 ([1]; Table 10): 39 nM; IC50 (MMP-1; Table 10): 9.9 nM
–	–	–	–	CC#CCOc1ccc(S(=O)(=O)N2C[C@H](CC(=O)NCCN(C)C)SC(C)(C)[C@@H]2C(=O)NO)cc1 [Example 284, (3S,6S)-4-{[4-(2-Butynyloxy)phenyl]sulfonyl}-6-(2-{[2-(dimethylamino)ethyl]amino}-2-oxoethyl)-N-hydroxy-2,2-dimethyl-3-thiomorpholinecarboxamide]	IC50 (MMP-13; [3]): 76 nM; IC50 ([1]; Table 11): 125 nM; IC50 (MMP-1; Table 11): 31 nM
–	–	–	–	C#CC#CCOc1ccc(S(=O)(=O)N2CCSC(C)(C)[C@@H]2C(=O)NO)cc1 [Example 263]	IC50 (MMP-13; [2]): 11 nM; IC50 ([1]; Table 10): 42 nM; IC50 (MMP-1; Table 10): 5.7 nM
–	–	–	–	CC1(C)SCCN(S(=O)(=O)c2ccc(OCC#CCCCCN)cc2)[C@H]1C(=O)NO [Example 253]	IC50 (MMP-13; [2]): 7.3 nM; IC50 ([1]; Table 10): 40 nM; IC50 (MMP-1; Table 10): 92 nM
36	20	408	–	CC#CCOc1ccc(S(=O)(=O)N2CCCSC[C@@H]2C(=O)NO)cc1 [Example 174]	–
–	–	–	–	CC(=O)OCC#CCOc1ccc(S(=O)(=O)N2CCSC(C)(C)[C@@H]2C(=O)NO)cc1 [Example 261, 4-[4-({(3S3-[(Hydroxyamino)carbonyl]-2,2-dimethylthiomorpholinyl}sulfonyl)phenoxy]-2-butynyl Acetate]	IC50 (MMP-13; [2]): 1.1 nM; IC50 ([1]; Table 10): 45 nM; IC50 (MMP-1; Table 10): 103 nM
50	28	1030	–	CC#CCOc1ccc(S(=O)(=O)N2CCCS(=O)(=O)C[C@@H]2C(=O)NO)cc1 [Example 175]	–

SMILES	IC50 (MMP-13; read-out: MMP-13 IC50) [nM]	IC50 [1] [nM]	IC50 (MMP-1) [nM]	IC50 (MMP-9) [nM]	further results
CC#CCOc1ccc(S(=O)(=O)N2CCN(C(=O)N3CCOCC3)CC2C(=O)NO)cc1 (stereo not drawn) [Example 215, 1-(4-but-2-ynyloxy-Benzenesulfonyl)-4-(morpholine-4-carbonyl)-piperazine-2-carboxylic Acid Hydroxyamide]	39	35	695	60	–
CC#CCOc1ccc(S(=O)(=O)N2CCN(C(=O)OCc3ccccc3)CC2C(=O)NO)cc1 (stereo not drawn) [Example 219, Benzyl 4-{[4-(2-Butynyloxy)phenyl]sulfonyl}-3-[(hydroxyamino)carbonyl]-1-piperazinecarboxylate]	10	–	176	45	–
